Test results from patent US20030203963A1, “Antimicrobial agent” (priority 2001, published 2003).

What was measured:
[1] = tested on: Y. enterocolitica S16; assay: Bioscreen growth inhibition test; format: cell-based, Yersinia enterocolitica; conditions: BS010510, 24 h/30, APP20010213
Experimental: For broth cultures and Bioscreen testing most bacteria were grown in Brain Heart Infusion (BHI, Oxoid, pH 7.4). Lactobacillus sake A10 was grown in de Man, Rogosa, Sharpe medium ([…], Oxoid). Yeasts were grown in Sabouraud Liquid medium (SLM, Oxoid). Most bacteria were cultured at 30° C. Lactic acid bacteria were grown on solid medium in enriched CO2 atmosphere. Clostridium species were grown in Reinforced Clostridial Medium (RCM) at 37° C. anaerobically. Brochothrix thermosphacta fungi and yeasts were grown at 25° C. Fungi were cultured on Malt Extract Agar (MEA, Oxoid).
An automated Microbiology Reader Bioscreen C was used to measure growth curves of the strains in the presence and absence of APP. The Bioscreen C measures the development of turbidity (i.e. growth) kinetically by vertical photometry in 200 wells of a honeycomb microtitre plate, simultaneously. The system consists of a Bioscreen C analyser, which is an incubator and measurement unit, integrated with a PC, software (BioLink v 5.30), printer and a ‘Honeycomb 2’ cuvette multiwell plate. Growth curve data can be analysed within the BioLink software or exported to programs such as Excel.
Broth culture media were dispensed in 270 μl volumes into the wells as directed. […] (depending on the micro-organism under investigation) with readings taken every 20 minutes after the trays were shaken. […]

[2] = tested on: L. monocytogenes; assay: Test in milk; format: cell-based, Listeria monocytogenes; conditions: 2000 ppm, TMGB010605
Experimental: 8.9 ml samples of UHT milk containing 0.5% glucose and the indicator bromocresol purple (0.01%) were prepared and sterilised by autoclaving. The pH before APP addition was pH 6.65. Appropriate stock solutions of APP batch number APP20010215 (at 138 mg/ml) were prepared and filter sterilised. 1 ml of each was added to the milk to prepare tests containing 0, 1000 and 2000 ppm APP. Tests were then inoculated with 100 μl of diluted overnight broth cultures or spore suspensions to give a final inoculum level of ca. 10^3 cfu/ml. These and uninoculated tests were incubated at 20 and 8° C. and examined daily for visible changes compared to uninoculated control.

[3] = tested on: B. cereus 204; assay: Test in cooked sausage meat slurry; format: cell-based, Bacillus cereus
Excerpt: 500 g of bologna sausage meat mixture was mixed with 500 g Brain Heart Infusion broth (BHIB) to make a homogeneous slurry. The bologna sausage meat mix comprised (g per kg): lean beef 320; lean pork 202; lard 250; water 40; glucose 5; starch 155; spice mix 3.75; sodium glutamate 0.5; sodium erythorbate 0.545; sodium di-phosphate 3; NaCl 20; sodium nitrite 0.15. 200 g samples of the meat slurry were autoclaved. While the meat was still warm it was re-mixed thoroughly. When the meat had cooled it was inoculated with 2 ml of 10^5 cfu/ml spore or cell suspension, and re-mixed again. Each inoculated meat sample was divided into 3×50 g samples, and 1 ml of either SDW, 2.5% or 5% APP solution (batch number APP 20010215) was added to prepare meat samples containing 0, 500 and 1000 ppm APP. The meat slurry was again shaken thoroughly to ensure even mixing, an initial viable count was taken and the samples incubated at 8° C. Samples were taken at twice-weekly intervals. The pH of the sausage meat slurry was 6.2.

[4] = tested on: L. monocytogenes 272; assay: Test in cooked minced beef slurry; format: cell-based, Listeria monocytogenes
Experimental: 1 kg of minced beef, purchased from the local butcher, was mixed with 1 litre of BHI. 200 g portion of this meat slurry was autoclaved. When the meat had cooled, the pH was recorded (pH 6.24), and each pot was inoculated with 2.0 ml of 10^5 spores or cells and the meat re-mixed thoroughly. Each inoculated 200 g pot was distributed as 3×50 g portions. To each pot 1 ml of SDW, 5% or 10% APP (Batch No. APP20010215) was added, and the meat was again mixed thoroughly. An initial viable count was performed, the meat was incubated at 8° C. and sampled twice weekly. The pH of the cooked minced beef slurry was 6.24.

[5] = tests disclosed by Baute et al., Phytochemistry 33 (1993); cited from earlier work

O=C1CC(CO)OC=C1O (stereo not drawn) [APP, Ascopyrone P]
APP level causing total inhibition [1]: 2000 ppm
Control of growth ([2]; milk at 8° C.): No control observed
Control of growth ([2]; milk at 20° C.): No control observed
10^6 reached at ([3]; 1000 ppm, cooked sausage meat slurry at 8° C., TSM010605, controls 5 d): 7 d
Effect on growth ([3]; 1000 ppm, cooked sausage meat slurry at 8° C., pH 6.2, TSM010605): No total inhibition
Partial inhibition (effect on growth of target organism by APP) ([3]; Cooked sausage meat slurry at 8° C. pH 6.2, (1000)): B. cereus (1000)
Effect on growth ([4]; 2000 ppm, minced beef slurry at 8° C., pH 6.24, TCM010619): No significant inhibition by 2000 ppm
No inhibition (effect on growth of target organism by 2000 ppm APP) ([4]; Cooked minced beef slurry at 8° C. pH 6.24, organism printed in brackets): (L. monocytogenes)
Function as an antibiotic [5]: did not function satisfactorily as an antibiotic
